Assay [1] concerns human PD1 on Jurkat T cells. In words: Competitive inhibition of PD-L1-Fc binding to Jurkat cells overexpressing human PD1. Type of assay: cell-based. Conditions: 10 μM peptide, 30 min on ice, PD-L1-Fc 4 μg/mL; flow cytometry MFI normalized to no peptide; duplicates. (In general: In flow cytometry, cells or beads pass a laser one at a time.)
The target in another assay is human PD1 (Homo sapiens, UniProt Q15116). Kind of assay: Biacore surface plasmon resonance, binding to human PD1. Conditions: for KA: 25°C, HEPES pH 7.4; for Rmax: maximum binding capacity. How it is done:
(§1) Binding experiments were performed on a Biacore T-200 (GE Healthcare Life Sciences, Buckinghamshire, UK) at 25°C. The assay buffer was 10 mM HEPES buffer (pH 7.4), 150 mM NaCl, 3 mM EDTA, and 0.05% P20. The regeneration buffer was 10 mM HEPES buffer (pH 7.4), 150 mM NaCl, 3 mM EDTA, and 0.05% P20. The immobilization buffer was 10 mM sodium acetate at pH 5.0. The flow rate used for immobilizing the ligand was 5 μL/min. The flow rate for kinetics analysis was 30 μL/min. In initial scouting experiments, 12,000 RU of human and 6000 RU of mouse PD1 receptors were directly immobilized on flow cell 2 and flow cell 4 of the CM5 chip using an amine coupling method (EDC/NHS). The unoccupied sites were blocked with 1M ethanol amine. […] Flow cell 1 was kept blank and used for reference subtraction. Binding of an analyte to the ligand was monitored in real-time. Based on the scouting results, full kinetics were performed by immobilizing 10,000 RU of the ligand to a new chip using an analyte concentration of 25 μM, followed by serial dilution to 12.5, 6.25, 3.125, 1.562, 0.78, and 0 μM concentration, or as indicated. Data analysis was performed using software for Biacore 3000, because it has more flexibility in terms of obtaining the binding characteristics with a limited analyte concentration range. […] Chi-square (χ^2) analysis was performed between the actual sensorgram and the sensorgram generated from the BIAnalysis software to determine the accuracy of the analysis. A χ^2 value within 1–2 was considered to be significant (accurate) and below 1 was considered to be highly significant (highly accurate).
(§2) The four peptides identified by phage display were then tested for binding to human and mouse PD1 using the surface plasmon resonance technique.

A further assay deals with T1, mouse PD1 (Mus musculus, UniProt Q02242).
T1 sequence (Q02242 25-288): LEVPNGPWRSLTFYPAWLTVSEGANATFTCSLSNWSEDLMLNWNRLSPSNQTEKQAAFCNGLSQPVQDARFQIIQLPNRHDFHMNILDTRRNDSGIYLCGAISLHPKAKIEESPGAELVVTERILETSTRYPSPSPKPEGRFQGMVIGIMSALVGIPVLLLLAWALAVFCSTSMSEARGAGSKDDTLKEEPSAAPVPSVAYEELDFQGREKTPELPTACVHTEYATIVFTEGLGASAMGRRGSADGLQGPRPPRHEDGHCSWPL
In words: Biacore surface plasmon resonance, binding to mouse PD1. To be noted: for relative affinity for mouse PD1: compared to WQ20 and HD20 (Table 2); for KA: 25°C, HEPES pH 7.4. How it is done: as §1, §2

Another assay deals with human PBMC. It is filed as cell-based.
The subject of a further assay is P. yoelii sporozoites. Kind of assay: Sporozoite challenge and protection against malaria. It is filed as in vivo, Plasmodium yoelii (17XNL) in BALB/c mice. To be noted: AdPyCS 10^9 virus particles IM; 200 μg IP days 1, 3, 5, 7 where treated; challenge day 12; n = 20/group. The source says: Six- to eight-week-old female BALB/c mice were purchased from Taconic (Germantown, NY, USA). All mice were maintained under standard conditions in the Laboratory Animal Research Center of the Rockefeller University, and the protocol was approved by the Institutional Animal Care and Use Committee at the Rockefeller University (Assurance no. A3081-01). A recombinant serotype 5 adenovirus, AdPyCS that expressed Plasmodium yoelii circumsporozoite protein (PyCS) was constructed as previously described ([32]). Wild-type P. yoelii parasites of the 17 XNL strain were maintained in the insect facility of the Division of Parasitology, Department of Microbiology at New York University School of Medicine. […]
Sporozoite challenge experiments were performed as described previously ([32]–[35]). […] Parasitemia was monitored from days 3 to 8 after the sporozoite challenge, by detecting the presence of parasitized red blood cells in thin blood smears to assess for a complete protection against malaria. […]
To evaluate efficacy of the PD1 peptide antagonists as a prophylactic vaccine adjuvant, a rodent malaria model dependent on the generation of protective CD8 T cells was employed. […] On day 12, spleens were harvested and the number of splenic circumsporozoite protein (CS)-specific, IFN-γ-secreting CD8^+ T cells were assessed using an ELISpot assay. […]

[2] abbreviates: human PD1, peptide analyte 0–25 μM.
Setting [3] is: mouse PD1, peptide analyte 0–25 μM.
The mark [4] stands for this setting: mouse PD1, peptide analyte 0–25 μM, maximum binding capacity.

Where no end group is shown, it is not given here. Some results are limits rather than exact numbers.

Chain of human PD1 (Q15116 25-288): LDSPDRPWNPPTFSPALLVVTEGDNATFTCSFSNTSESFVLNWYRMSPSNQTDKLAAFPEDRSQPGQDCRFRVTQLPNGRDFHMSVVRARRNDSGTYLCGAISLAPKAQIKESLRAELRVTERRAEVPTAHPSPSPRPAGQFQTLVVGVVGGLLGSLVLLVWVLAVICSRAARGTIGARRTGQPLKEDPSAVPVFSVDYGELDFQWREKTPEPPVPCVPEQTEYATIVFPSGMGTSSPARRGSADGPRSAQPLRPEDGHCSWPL

QTRTVPMPKIHHPPWQNVVP [QP20]: the “reduction in PD-L1-Fc binding” value in assay [1] is less than 30%. The KA is 93600 M⁻¹ at human PD1 (setting [2]) and 18000 M⁻¹ at mouse PD1 (setting [3]). Moreover, the values for the Rmax on human PD1 (setting [2]) and on mouse PD1 (setting [4]) were 3.83 RU and 13.4 RU, respectively. The “relative affinity for mouse PD1” value at mouse PD1 was “bound to mouse PD1 with a higher affinity compared to WQ20 and HD20”. Besides, the “cytokine secretion (IFN-γ, IL-17, IL-6)” value in the assay on human PBMC was “With the exception of QP20, the other PD1-binding peptides significantly increased cytokine secretion at 200 μM relative to tetanus alone”.

As for “negative control peptide: control peptide is the OVA323−339 peptide (malaria model) (KISQAVHAAHAEINEAG; UniProt P01012 323-339, looked up, fragment)”, the “protection against malaria” value in the assay on P. yoelii sporozoites was “no protection”.

Turning to SSYHHFKMPELHFGKNTFHQ [SQ20], in assay [1], the “reduction in PD-L1-Fc binding” value was greater than 30%. Besides, the KA came out at 194000 M⁻¹ at human PD1 (setting [2]) and 21400 M⁻¹ at mouse PD1 (setting [3]). Besides, the Rmax on human PD1 (setting [2]) came out at 4.05 RU; at mouse PD1 (setting [4]), 12.8 RU. For the same substance, the “relative affinity for mouse PD1” value on mouse PD1 is “bound to mouse PD1 with a higher affinity compared to WQ20 and HD20”.

For the substance “Mouse PD-L1: mouse PD-L1 analyte [reference compound]”, the Rmax with mouse PD1 (mouse PD1, mouse PD-L1 analyte 0–50 (head μM)) is listed as 259 RU; with mouse PD1 (mouse PD1, mouse PD-L1 analyte 0–1000 (head μM)) it was 1.07 × 10^3 RU.

Consider HHHQVYQVRSHWTGMHSGHD [HD20], for which the “reduction in PD-L1-Fc binding” value in assay [1] was less than 30%. Moreover, the Rmax at human PD1 (human PD1, peptide analyte 0–12.5 μM) is reported as 3.35 RU; at mouse PD1 (setting [4]), 76 RU. For the same substance, the KA on mouse PD1 (setting [3]) turned out to be 4250 M⁻¹.

Values taken from publication PMC7068811 (Frontiers in Immunology, 2020).
